{"source": "patent US9518060B2", "about": "“Substituted pyrrolo[3,4-c]pyrazoles as PKC kinase inhibitors” (PFIZER INC., priority 2007, dated 2016)"}
{"biological_target": "Protein Kinase C beta 2 (PKCβII) (Homo sapiens (Human), UniProt P05771)", "sequence (P05771 other isoform, or with tags, fused parts or gaps)": "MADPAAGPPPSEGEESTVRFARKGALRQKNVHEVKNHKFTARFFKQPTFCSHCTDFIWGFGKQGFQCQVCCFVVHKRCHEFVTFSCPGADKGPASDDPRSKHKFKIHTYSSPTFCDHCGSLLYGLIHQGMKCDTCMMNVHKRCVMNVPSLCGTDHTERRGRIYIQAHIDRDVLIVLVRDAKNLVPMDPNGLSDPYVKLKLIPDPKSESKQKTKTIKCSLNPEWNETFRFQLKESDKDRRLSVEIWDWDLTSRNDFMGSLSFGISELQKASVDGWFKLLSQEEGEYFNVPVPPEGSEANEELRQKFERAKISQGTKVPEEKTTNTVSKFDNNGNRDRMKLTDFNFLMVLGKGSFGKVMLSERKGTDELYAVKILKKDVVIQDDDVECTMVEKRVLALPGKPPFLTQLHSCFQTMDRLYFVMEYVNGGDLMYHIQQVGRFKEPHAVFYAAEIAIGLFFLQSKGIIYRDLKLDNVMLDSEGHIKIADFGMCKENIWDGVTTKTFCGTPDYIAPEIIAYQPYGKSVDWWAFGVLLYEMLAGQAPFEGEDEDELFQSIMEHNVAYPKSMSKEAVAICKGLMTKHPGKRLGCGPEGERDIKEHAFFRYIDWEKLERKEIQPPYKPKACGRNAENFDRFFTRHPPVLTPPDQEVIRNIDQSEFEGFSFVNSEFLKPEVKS", "experiment": "PKCβII coupled spectrophotometric kinase assay (PK/LDH, NADH absorbance at 340 nm)", "type": "biochemical", "details": "apparent Ki, ATP competitive inhibition model (Morrison equation); 0.1 mM ATP, 5 nM PKC, 30° C.; read-out: Ki app", "protocol": "Protein Kinase C beta 2 (PKCβII) catalyzes the production of ADP from ATP that accompanies the phosphoryl transfer to the PKC Pseudosubstrate peptide (A→S, RFARKGSLRQKNV). This transfer is coupled to the oxidation of β-NADH through the activities of Pyruvate Kinase (PK) and Lactate Dehydrogenase (LDH). β-NADH conversion to NAD+ is monitored by the decrease in absorbance at 340 nm (e=6.22 cm^−1 mM^−1) using a Molecular Devices SPECTRA max PLUS spectrophotometer.\nA typical assay was carried out on a 96-well, clear microtiter plate in a Molecular Devices spectrophotometer for 20 minutes at 30° C. in 0.1 mL of assay buffer containing 50 mM HEPES, pH 7.4, 5 nM PKC, 23 units of pyruvate kinase, 33 units of lactate dehydrogenase, 0.15 mM peptide, 0.1 mM ATP, 1 mM DTT, 4 mM PEP, 8 mM MgCl2, 0.3 mM NADH, 60 mM CaCl2, 10 mg/mL PS, 50 ng/mL PMA, 7.5% DMSO and from about 10,000 nM to 0.169 nM compound inhibitor. Stock solutions of 3-sn-phosphatidyl-L-serine (PS) and phorbol-12-myristate-13-acetate (PMA) were sonicated for 30 seconds just prior to addition to assay buffer and assays were initiated by the addition of 100 μM ATP.\nSteady-state kinetic parameters for the bi-bi kinase reaction were determined at saturating phospho-acceptor peptide substrate concentration (0.15 mM) by fitting initial velocity data to the Michaelis-Menten equation, v=Vmax[S]/(KM+[S]) where v is the measured initial velocity, Vmax is the maximal enzyme velocity, [S] is the ATP substrate concentration, and KM is the Michealis constant for ATP. Enzyme turnover values (kcat) were calculated according to […], where [E] is the total enzyme concentration. Enzyme inhibition constants (apparent Ki values) were determined by fitting initial velocities at variable inhibitor concentrations to a model for ATP competitive inhibition based on the Morrison equation). Morrison, J. F., Biochim. Biophys Acta 185: 269-286 (1969).", "units": {"Ki": "nM"}}
{"smiles": "Cc1cccc(Nc2n[nH]c3c2CN(C(=O)C2(F)CCN(C)CC2)C3(C)C)n1", "note": "[Example J2, 5-[(4-fluoro-1-methylpiperidin-4-yl)carbonyl]-6,6-dimethyl-N-(6-methylpyridin-2-yl)-1,4,5,6-tetrahydropyrrolo[3,4-c]pyrazol-3-amine]", "Ki": 59.9}
{"smiles": "Cc1ccc(F)c(Nc2n[nH]c3c2CN(C(=O)N2C[C@@H](C)N(C)C[C@@H]2C)C3(C)C)n1", "note": "[Example J3, N-(3-fluoro-6-methylpyridin-2-yl)-6,6-dimethyl-5-{[(2S,5R)-2,4,5-trimethylpiperazin-1-yl]carbonyl}-1,4,5,6-tetrahydropyrrolo[3,4-c]pyrazol-3-amine]", "Ki": 2.63}
{"smiles": "Cc1ccc(F)c(Nc2n[nH]c3c2CN(C(=O)N2C[C@]4(C)CCCN4C[C@@H]2C)C3(C)C)n1", "note": "[Example J4, 5-{[(3S,8aS)-3,8a-dimethylhexahydropyrrolo[1,2-a]pyrazin-2(1H)-yl]carbonyl}-N-(3-fluoro-6-methylpyridin-2-yl)-6,6-dimethyl-1,4,5,6-tetrahydropyrrolo[3,4-c]pyrazol-3-amine]", "Ki": 8.64}
{"smiles": "Cc1ccc(F)c(Nc2n[nH]c3c2CN(C(=O)N2C[C@@H]4CCCN4C[C@@H]2C)C3(C)C)n1", "note": "[Example J5, N-(3-fluoro-6-methylpyridin-2-yl)-6,6-dimethyl-5-{[(3S,8aS)-3-methylhexahydropyrrolo[1,2-a]pyrazin-2(1H)-yl]carbonyl}-1,4,5,6-tetrahydropyrrolo[3,4-c]pyrazol-3-amine]", "Ki": 6.43}
{"smiles": "Cc1ccc(F)c(Nc2n[nH]c3c2CN(C(=O)N2CC(C)(C)N(C)C[C@@H]2C)C3(C)C)n1", "note": "[Example J6, N-(3-fluoro-6-methylpyridin-2-yl)-6,6-dimethyl-5-{[(2S)-2,4,5,5-tetramethylpiperazin-1-yl]carbonyl}-1,4,5,6-tetrahydropyrrolo[3,4-c]pyrazol-3-amine]", "Ki": 1.17}
{"smiles": "Cc1cccc(Nc2n[nH]c3c2CN(C(=O)N2C[C@]4(C)CCCN4C[C@@H]2C)C3(C)C)n1", "note": "[Example J7, 5-{[(3S,8aS)-3,8a-dimethylhexahydropyrrolo[1,2-a]pyrazin-2(1H)-yl]carbonyl}-6,6-dimethyl-N-(6-methylpyridin-2-yl)-1,4,5,6-tetrahydropyrrolo[3,4-c]pyrazol-3-amine]", "Ki": 111}
{"smiles": "Cc1cccc(Nc2n[nH]c3c2CN(C(=O)N2C[C@@H](C)N(C)C[C@@H]2C)C3(C)C)n1", "note": "[Example J8, 6,6-dimethyl-N-(6-methylpyridin-2-yl)-5-{[(2S,5R)-2,4,5-trimethylpiperazin-1-yl]carbonyl}-1,4,5,6-tetrahydropyrrolo[3,4-c]pyrazol-3-amine]", "Ki": 32}
{"smiles": "COCc1ncc(F)c(Nc2n[nH]c3c2CN(C(=O)N2CC(C)(C)N(C)C[C@@H]2C)C3(C)C)n1", "note": "[Example J9, N-[5-fluoro-2-(methoxymethyl)pyrimidin-4-yl]-6,6-dimethyl-5-{[(2S)-2,4,5,5-tetramethylpiperazin-1-yl]carbonyl}-1,4,5,6-tetrahydropyrrolo[3,4-c]pyrazol-3-amine]", "Ki": 2.1}
{"smiles": "CCc1ncc(F)c(Nc2n[nH]c3c2CN(C(=O)N2C[C@@H](C)N(CC4CCOCC4)C[C@@H]2C)C3(C)C)n1", "note": "[Example J10, 5-{[(2S,5R)-2,5-dimethyl-4-(tetrahydro-2H-pyran-4-ylmethyl)piperazin-1-yl]carbonyl}-N-(2-ethyl-5-fluoropyrimidin-4-yl)-6,6-dimethyl-1,4,5,6-tetrahydropyrrolo[3,4-c]pyrazol-3-amine]", "Ki": "< 10"}
{"smiles": "COc1ccnc(Nc2n[nH]c3c2CN(C(=O)N2C[C@@H](C)N(C4CCOCC4)C[C@@H]2C)C3(C)C)n1", "note": "[Example J11, 5-{[(2S,5R)-2,5-dimethyl-4-(tetrahydro-2H-pyran-4-yl)piperazin-1-yl]carbonyl}-N-(4-methoxypyrimidin-2-yl)-6,6-dimethyl-1,4,5,6-tetrahydropyrrolo[3,4-c]pyrazol-3-amine]", "Ki": "< 10"}
{"smiles": "Cc1ccnc(Nc2n[nH]c3c2CN(C(=O)N2C[C@@H](C)N(C4CCOCC4)C[C@@H]2C)C3(C)C)n1", "note": "[Example J12, 5-{[(2S,5R)-2,5-dimethyl-4-(tetrahydro-2H-pyran-4-yl)piperazin-1-yl]carbonyl}-6,6-dimethyl-N-(4-methylpyrimidin-2-yl)-1,4,5,6-tetrahydropyrrolo[3,4-c]pyrazol-3-amine]", "Ki": "< 10"}
{"smiles": "C[C@@H]1CN(C(=O)N2Cc3c(Nc4nccc(C(F)(F)F)n4)n[nH]c3C2(C)C)[C@@H](C)CN1C1CCOCC1", "note": "[Example J13]", "Ki": "< 10"}
{"smiles": "COc1ccnc(Nc2n[nH]c3c2CN(C(=O)N2C[C@@H](C)N(CC4CCOCC4)C[C@@H]2C)C3(C)C)n1", "note": "[Example J14, 5-{[(2S,5R)-2,5-dimethyl-4-(tetrahydro-2H-pyran-4-ylmethyl)piperazin-1-yl]carbonyl}-N-(4-methoxypyrimidin-2-yl)-6,6-dimethyl-1,4,5,6-tetrahydropyrrolo[3,4-c]pyrazol-3-amine]", "Ki": 19.2}
{"smiles": "Cc1ccnc(Nc2n[nH]c3c2CN(C(=O)N2C[C@@H](C)N(CC4CCOCC4)C[C@@H]2C)C3(C)C)n1", "note": "[Example J15, 5-{[(2S,5R)-2,5-dimethyl-4-(tetrahydro-2H-pyran-4-ylmethyl)piperazin-1-yl]carbonyl}-6,6-dimethyl-N-(4-methylpyrimidin-2-yl)-1,4,5,6-tetrahydropyrrolo[3,4-c]pyrazol-3-amine]", "Ki": "< 10"}
{"smiles": "Cc1cc(C)nc(Nc2n[nH]c3c2CN(C(=O)N2C[C@@H](C)N(CC4CCOCC4)C[C@@H]2C)C3(C)C)n1", "note": "[Example J16, N-(4,6-dimethylpyrimidin-2-yl)-5-{[(2S,5R)-2,5-dimethyl-4-(tetrahydro-2H-pyran-4-ylmethyl)piperazin-1-yl]carbonyl}-6,6-dimethyl-1,4,5,6-tetrahydropyrrolo[3,4-c]pyrazol-3-amine]", "Ki": 11.1}
{"smiles": "CCOc1ncc(F)c(Nc2n[nH]c3c2CN(C(=O)N2C[C@@H](C)N(C)C[C@@H]2C)C3(C)C)n1", "note": "[Example K1, N-(2-ethoxy-5-fluoropyrimidin-4-yl)-6,6-dimethyl-5-{[(2S,5R)-2,4,5-trimethylpiperazin-1-yl]carbonyl}-1,4,5,6-tetrahydropyrrolo[3,4-c]pyrazol-3-amine]", "Ki": 1.12}
{"smiles": "CCOc1ncc(F)c(Nc2n[nH]c3c2CN(C(=O)N2C[C@@H](C)N(CC)C[C@@H]2C)C3(C)C)n1", "note": "[Example K2, N-(2-ethoxy-5-fluoropyrimidin-4-yl)-6,6-dimethyl-5-{[4-ethyl(2S,5R)-2,5-dimethylpiperazin-1-yl]carbonyl}-1,4,5,6-tetrahydropyrrolo[3,4-c]pyrazol-3-amine]", "Ki": 2.11}
{"smiles": "CCOc1ncc(F)c(Nc2n[nH]c3c2CN(C(=O)N2CC(C)(C)N(C)C[C@@H]2C)C3(C)C)n1", "note": "[Example K3, N-(2-ethoxy-5-fluoropyrimidin-4-yl)-6,6-dimethyl-5-{[(2S)-2,4,5,5-tetramethylpiperazin-1-yl]carbonyl}-1,4,5,6-tetrahydropyrrolo[3,4-c]pyrazol-3-amine]", "Ki": 0.912}
{"smiles": "CCOc1ncc(F)c(Nc2n[nH]c3c2CN(C(=O)N2C[C@@H](C)N(CCOC)C[C@@H]2C)C3(C)C)n1", "note": "[Example K4, N-(2-ethoxy-5-fluoropyrimidin-4-yl)-5-{[(2S,5R)-4-(2-methoxyethyl)-2,5-dimethylpiperazin-1-yl]carbonyl}-6,6-dimethyl-1,4,5,6-tetrahydropyrrolo[3,4-c]pyrazol-3-amine]", "Ki": 3.33}
{"smiles": "CCOc1ncc(F)c(Nc2n[nH]c3c2CN(C(=O)N2C[C@@H](C)N(CCCOC)C[C@@H]2C)C3(C)C)n1", "note": "[Example K5]", "Ki": 0.683}
{"smiles": "COCCCN1C[C@H](C)N(C(=O)N2Cc3c(Nc4nc(OCC(F)(F)F)ncc4F)n[nH]c3C2(C)C)C[C@H]1C", "note": "[Example K6, N-[5-fluoro-2-(2,2,2-trifluoroethoxy)pyrimidin-4-yl]-5-{[(2S,5R)-4-(3-methoxypropyl)-2,5-dimethylpiperazin-1-yl]carbonyl}-6,6-dimethyl-1,4,5,6-tetrahydropyrrolo[3,4-c]pyrazol-3-amine]", "Ki": 0.376}
{"smiles": "C[C@@H]1CN(C(=O)N2Cc3c(Nc4nc(OCC(F)(F)F)ncc4F)n[nH]c3C2(C)C)[C@@H](C)CN1C", "note": "[Example K7, N-[5-fluoro-2-(2,2,2-trifluoroethoxy)pyrimidin-4-yl]-6,6-dimethyl-5-{[(2S,5R)-2,4,5-trimethylpiperazin-1-yl]carbonyl}-1,4,5,6-tetrahydropyrrolo[3,4-c]pyrazol-3-amine]", "Ki": 0.165}
{"smiles": "C[C@H]1CN(C)C(C)(C)CN1C(=O)N1Cc2c(Nc3nc(OCC(F)(F)F)ncc3F)n[nH]c2C1(C)C", "note": "[Example K8, N-[5-fluoro-2-(2,2,2-trifluoroethoxy)pyrimidin-4-yl]-6,6-dimethyl-5-{[(2S)-2,4,5,5-tetramethylpiperazin-1-yl]carbonyl}-1,4,5,6-tetrahydropyrrolo[3,4-c]pyrazol-3-amine]", "Ki": 0.181}
